#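 Five concentrations, 48 hours, 96-well plates. TGI: concentration producing complete growth inhibition.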
# Experiments:
# Experiment in all cases: growth of human tumour cells (NCI), 48 h
# [1] = test system: MDA-MB-231 breast
# [2] = test system: HOP-92 NSCLC
# [3] = test system: K-562 leukemia
# [4] = test system: CCRF-CEM leukemia
# [5] = test system: MOLT-4 leukemia
# [6] = test system: SW-620 colon
# [7] = test system: UACC-62 melanoma
# [8] = test system: MALME-3M melanoma
# [9] = test system: OVCAR-5 ovarian
# [10] = test system: T-47D breast
# [11] = test system: HL-60(TB) leukemia
# [12] = test system: LOX IMVI melanoma
# [13] = test system: HCC-2998 colon
# [14] = test system: OVCAR-4 ovarian
# [15] = test system: SNB-75 CNS
# [16] = test system: M14 melanoma
# [17] = test system: NCI-H522 lung
# [18] = test system: A549 NSCLC
Structure (SMILES),TGI [1],TGI [2],TGI [3],TGI [4],TGI [5],TGI [6],TGI [7],TGI [8],TGI [9],TGI [10],TGI [11],TGI [12],TGI [13],TGI [14],TGI [15],TGI [16],TGI [17],TGI [18]
C[C@@H]1CC[C@H]2[C@H]1[C@H]1[C@@H](CC[C@]2(C)N=C=S)C1(C)C,52.7 µM,84.7 µM,35.7 µM,30.9 µM,32.5 µM,36 µM,42.6 µM,52.8 µM,> 100 µM,> 100 µM,54.3 µM,> 100 µM,83.4 µM,> 100 µM,> 100 µM,78.1 µM,,
COc1ccc2oc(=N)c(C(=O)Nc3ccccc3)cc2c1,> 100 µM,,4.19 µM,37.1 µM,> 100 µM,80.9 µM,,53.2 µM,> 100 µM,> 100 µM,,> 100 µM,,> 100 µM,28 µM,> 100 µM,6.4 µM,> 100 µM
COc1ccc(N2C(=O)C3c4[nH]c5cc(C)ccc5c4C4CCC(C(C)(C)C)CC4C3C2=O)cc1 (stereo not given),> 10 µM,,> 10 µM,> 10 µM,> 10 µM,> 10 µM,> 10 µM,> 10 µM,> 10 µM,> 10 µM,> 10 µM,> 10 µM,> 10 µM,> 10 µM,6.07 µM,> 10 µM,> 10 µM,> 10 µM
COC1OC2COC(c3ccccc3)OC2C(O)C1OC(=S)c1ccccc1 (stereo not given),> 100 µM,> 100 µM,> 100 µM,48.5 µM,> 100 µM,> 100 µM,> 100 µM,71.6 µM,> 100 µM,85 µM,,21.4 µM,,> 100 µM,,> 100 µM,,> 100 µM
O=C1N(Cc2ccccc2)C2CSCC2N1Cc1ccccc1 (stereo not given),68.3 µM,77.7 µM,> 100 µM,> 100 µM,97 µM,> 100 µM,79.2 µM,46.3 µM,> 100 µM,91.8 µM,,93.1 µM,62.9 µM,> 100 µM,> 100 µM,33.7 µM,24.2 µM,> 100 µM
C/C1=C\[C@H](C)C[C@H](C)OC(=O)[C@H](C)NC(=O)[C@@H](Cc2ccc(O)c(Br)c2)N(C)C(=O)[C@H](C)NC(=O)[C@@H](C)C1,0.518 µM,0.177 µM,> 25 µM,> 10.3 µM,> 19.5 µM,> 25 µM,> 25 µM,2.32 µM,> 25 µM,> 25 µM,,0.394 µM,> 25 µM,1.92 µM,0.0904 µM,> 25 µM,1.35 µM,> 25 µM
OC(C#CCN1CCCC1)(c1ccccc1)c1ccccc1Cl (stereo not given),> 100 µM,,> 100 µM,> 100 µM,91.2 µM,39.3 µM,57.5 µM,,> 100 µM,> 100 µM,68.3 µM,33.4 µM,40.4 µM,80.7 µM,> 100 µM,,41.6 µM,> 100 µM
CC1(C)CCc2c(ccc(C(=O)/C=C/c3ccc(O)cc3)c2O)O1,18.9 µM,24.4 µM,75 µM,13.2 µM,69.1 µM,24.4 µM,19.6 µM,16.3 µM,21.7 µM,21 µM,44.2 µM,19.8 µM,,19.6 µM,,20.7 µM,,25.8 µM

# Source: PubChem BioAssay (NCI)
